Results taken from patent publication US20230374015A1, “INHIBITORS OF FIBROBLAST GROWTH FACTOR RECEPTOR KINASES” (Kinnate Biopharma Inc., priority 2020, published 2023).

Tests used:
[1] = target: T1, FGFR2 (Homo sapiens, UniProt P21802); assay: FGFR2 Kinase Protocol - Condition 1 (Reaction Biology HotSpot radiometric kinase assay); type: biochemical; conditions: 20-min incubation of compound with kinase before ATP; poly[Glu:Tyr] (4:1) 0.2 mg/ml; ATP 100 micromolar; 2 hr room temperature
Description: Example 1: FGFR2 Kinase Protocol—Condition 1
The Reaction Biology HotSpot assay platform (http://www.reactionbiology.com) was used to measure kinase/inhibitor interactions as described previously (Anastassiadis et al., 2011). In brief, for each reaction, kinase and substrate were mixed in a buffer containing 20 mM HEPES (pH 7.5), 10 mM MgCl2, 1 mM EGTA, 0.02% Brij35, 0.02 mg/mL BSA, 0.1 mM Na3VO4, 2 mM DTT, and 1% DMSO. All compounds were in powder form and freshly solubilized in DMSO for assays. Compounds were then added to each reaction mixture via acoustic dispense using an ECHO 550 nanoliter dispenser. For Human FGFR2 wildtype testing, a peptide substrate, poly[Glu:Tyr] (4:1) was used to promote the reaction at a concentration of 0.2 mg/ml. For Human FGFR2 (V564F) testing, a peptide substrate, poly[Glu:Tyr] (4:1) was used to promote the reaction at a concentration of 0.2 mg/ml. ATP concentration for all assays was maintained at 100 micromolar. Compounds were tested in 10-dose IC50 mode with a 3-fold serial dilution. After a 20-min incubation, ATP (Sigma-Aldrich, St. Louis, MO 63178) and [g33P] ATP (specific activity 10 microCi/microliter) purchased at PerkinElmer (Boston, MA, 02118 Cat #BLU 003H250UC) were added at a final total concentration of […]. Reactions were carried out at room temperature for 2 hr and spotted onto P81 ion exchange cellulose chromatography paper (Reaction Biology). Filter paper was washed in 0.75% phosphoric acid to remove unincorporated ATP. The percent remaining kinase activity relative to a vehicle-containing (DMSO) kinase reaction was calculated for each kinase/inhibitor pair. IC50 values were calculated using Dotmatics Knowledge Solutions Studies curve fitting (Dotmatics, Bishops Stortford, UK, CM23).

[2] = target: T1, FGFR2; assay: FGFR2 Kinase Protocol - Condition 2 (Reaction Biology HotSpot radiometric kinase assay, no preincubation); type: biochemical; conditions: poly[Glu:Tyr] (4:1) 0.2 mg/ml, ATP 100 microM, 2 hr room temperature
Procedure, shortened: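 Radiometric HotSpot format: FGFR2 (wildtype or V564F) with poly[Glu:Tyr] (4:1) at 0.2 mg/ml in HEPES pH 7.5 buffer with 1% DMSO; ATP plus [γ33P]ATP at 100 µM total, added without preincubation. Reactions ran 2 hr at room temperature, then filter-bound. IC50 from 10-dose, 3-fold series versus DMSO control.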

T1 sequence (P21802 22-821): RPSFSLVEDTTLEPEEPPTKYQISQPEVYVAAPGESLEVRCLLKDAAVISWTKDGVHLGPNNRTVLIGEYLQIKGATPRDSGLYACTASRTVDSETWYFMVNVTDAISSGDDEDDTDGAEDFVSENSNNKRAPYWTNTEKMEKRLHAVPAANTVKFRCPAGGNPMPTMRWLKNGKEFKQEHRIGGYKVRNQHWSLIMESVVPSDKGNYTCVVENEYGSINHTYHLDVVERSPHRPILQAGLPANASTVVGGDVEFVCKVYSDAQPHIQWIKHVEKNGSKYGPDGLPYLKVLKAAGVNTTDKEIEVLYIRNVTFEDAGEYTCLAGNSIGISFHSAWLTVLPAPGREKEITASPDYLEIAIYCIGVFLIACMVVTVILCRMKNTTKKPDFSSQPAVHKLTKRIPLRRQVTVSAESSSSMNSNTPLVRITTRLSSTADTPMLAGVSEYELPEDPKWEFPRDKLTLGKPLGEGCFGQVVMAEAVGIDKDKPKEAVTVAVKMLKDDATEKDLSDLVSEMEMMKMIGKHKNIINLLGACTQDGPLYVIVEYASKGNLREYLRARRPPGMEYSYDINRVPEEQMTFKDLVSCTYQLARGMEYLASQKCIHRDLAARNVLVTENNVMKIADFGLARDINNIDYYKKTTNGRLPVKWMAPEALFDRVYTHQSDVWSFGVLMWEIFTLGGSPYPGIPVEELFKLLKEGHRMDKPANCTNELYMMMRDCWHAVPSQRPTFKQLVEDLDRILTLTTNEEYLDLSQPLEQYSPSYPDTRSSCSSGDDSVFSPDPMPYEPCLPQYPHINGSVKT

| IC50 [1] | IC50 [2] | Compound |
| --- | --- | --- |
| ≤ 100 nM | 100 to 1000 nM | C=CC(=O)N1C[C@@H](n2cc(C#Cc3ccc4c(c3)ncn4C3CC3)c3c(N)nccc32)C[C@@H]1COC [Example 30, 1-((2R,4S)-4-(4-amino-3-((1-cyclopropyl-1H-benzo[d]imidazol-5-yl)ethynyl)-1H-pyrrolo[3,2-c]pyridin-1-yl)-2-(methoxymethyl)pyrrolidin-1-yl)prop-2-en-1-one] |
| ≤ 100 nM | 100 to 1000 nM | C=CC(=O)N1C[C@@H](n2cc(C#Cc3ccc4c(c3)nc(C)n4C)c3c(N)nccc32)C[C@@H]1COC [Example 29, 1-((2R,4S)-4-(4-amino-3-((1,2-dimethyl-1H-benzo[d]imidazol-5-yl)ethynyl)-1H-pyrrolo[3,2-c]pyridin-1-yl)-2-(methoxymethyl)pyrrolidin-1-yl)prop-2-en-1-one] |
| ≤ 100 nM | ≤ 100 nM | C=CC(=O)N1C[C@@H](n2nc(C#Cc3c(F)cc4c(nc(C)n4C)c3F)c3c(N)ncnc32)C[C@@H]1COC [Example 12, 1-((2R,4S)-4-(4-amino-3-((4,6-difluoro-1,2-dimethyl-1H-benzo[d]imidazol-5-yl)ethynyl)-1H-pyrazolo[3,4-d]pyrimidin-1-yl)-2-(methoxymethyl)pyrrolidin-1-yl)prop-2-en-1-one] |
| ≤ 100 nM | 100 to 1000 nM | C=CC(=O)N1C[C@@H](n2cc(C#Cc3ccc4c(c3)ncn4CC)c3c(N)nccc32)C[C@@H]1COC [Example 31, 1-((2R,4S)-4-(4-amino-3-((1-ethyl-1H-benzo[d]imidazol-5-yl)ethynyl)-1H-pyrrolo[3,2-c]pyridin-1-yl)-2-(methoxymethyl)pyrrolidin-1-yl)prop-2-en-1-one] |
| ≤ 100 nM | ≤ 100 nM | C=CC(=O)N1C[C@@H](n2nc(C#Cc3c(F)cc4c(nc(C)n4C)c3F)c3c(N)nccc32)C[C@@H]1COC [Example 16, 1-((2R,4S)-4-(4-amino-3-((4,6-difluoro-1,2-dimethyl-1H-benzo[d]imidazol-5-yl)ethynyl)-1H-pyrazolo[4,3-c]pyridin-1-yl)-2-(methoxymethyl)pyrrolidin-1-yl)prop-2-en-1-one] |
| ≤ 100 nM |  | C=CC(=O)N1C[C@@H](n2nc(C#Cc3ccc4[nH]c(C)nc4c3)c3c(N)nccc32)C[C@@H]1COC [Example 22, 1-((2R,4S)-4-(4-amino-3-((2-methyl-1H-benzo[d]imidazol-5-yl)ethynyl)-1H-pyrazolo[4,3-c]pyridin-1-yl)-2-(methoxymethyl)pyrrolidin-1-yl)prop-2-en-1-one] |
| ≤ 100 nM |  | C=CC(=O)N1C[C@@H](n2cc(C#Cc3ccc4c(c3)ncn4C)c3c(N)nccc32)C[C@@H]1COC [Example 27, 1-((2R,4S)-4-(4-amino-3-((1-methyl-1H-benzo[d]imidazol-5-yl)ethynyl)-1H-pyrrolo[3,2-c]pyridin-1-yl)-2-(methoxymethyl)pyrrolidin-1-yl)prop-2-en-1-one] |
| ≤ 100 nM |  | C=CC(=O)N1C[C@@H](n2nc(C#Cc3ccc4[nH]c(C)nc4c3)c3c(N)ncnc32)C[C@@H]1COC [Example 1, 1-((2R,4S)-4-(4-amino-3-((2-methyl-1H-benzo[d]imidazol-5-yl)ethynyl)-1H-pyrazolo[3,4-d]pyrimidin-1-yl)-2-(methoxymethyl)pyrrolidin-1-yl)prop-2-en-1-one] |
| ≤ 100 nM |  | C=CC(=O)N1C[C@@H](n2nc(C#Cc3ccc4c(c3)ncn4CC)c3c(N)nccc32)C[C@@H]1COC [Example 23, 1-((2R,4S)-4-(4-amino-3-((1-ethyl-1H-benzo[d]imidazol-5-yl)ethynyl)-1H-pyrazolo[4,3-c]pyridin-1-yl)-2-(methoxymethyl)pyrrolidin-1-yl)prop-2-en-1-one] |
| ≤ 100 nM |  | C=CC(=O)N1C[C@@H](n2nc(C#Cc3ccc4[nH]ncc4c3)c3c(N)ncnc32)C[C@@H]1COC [Example 2, 1-((2R,4S)-4-(3-((1H-indazol-5-yl)ethynyl)-4-amino-1H-pyrazolo[3,4-d]pyrimidin-1-yl)-2-(methoxymethyl)pyrrolidin-1-yl)prop-2-en-1-one] |
| ≤ 100 nM | ≤ 100 nM | C=CC(=O)N1C[C@@H](n2nc(C#Cc3ccc4c(c3)nc(C)n4C)c3c(N)ncnc32)C[C@@H]1COC [Example 3, 1-((2R,4S)-4-(4-amino-3-((1,2-dimethyl-1H-benzo[d]imidazol-5-yl)ethynyl)-1H-pyrazolo[3,4-d]pyrimidin-1-yl)-2-(methoxymethyl)pyrrolidin-1-yl)prop-2-en-1-one] |
| ≤ 100 nM |  | C=CC(=O)N1CC[C@H](n2cc(C#Cc3ccc4[nH]c(C)nc4c3)c3c(N)ncnc32)C1 [Example 11, (S)-1-(3-(4-amino-5-((2-methyl-1H-benzo[d]imidazol-5-yl)ethynyl)-7H-pyrrolo[2,3-d]pyrimidin-7-yl)pyrrolidin-1-yl)prop-2-en-1-one] |
| 1000 to 10000 nM | 1000 to 10000 nM | C=CC(=O)N1C[C@@H](n2cc(C#Cc3ccc4nc(C)n(C)c4c3)c3c(N)nccc32)C[C@@H]1COC [Example 28] |
